Results on 13 compounds are retold here after patent publication US3995055A, “Method for treating peptic ulcers” (priority 1975, dated 1976).

The test system of data set [1] is Shay ulcers. Description: Shay Ulcer Test (oral administration). To be noted: for inhibitory ratio (Shay ulcer): 18 hours after ligation; for Effectiveness on Shay Ulcer (aggressive factors): Table 1. It counts as in vivo, Donryu rats. Here is the method: (§1) Donryu rats each weighing 200 to 240 g (six in each group) were starved for 48 hours, and ligated at a portion of the duodenum near the pylorus by the method of Shay et al (see Gastroenterology, 54, 43 (1945)). Immediately after the ligation, DV-1006 was orally administered to the rats at a dosage of 300 mg/Kg. After 18 hours, the abdomen of each of the rats was incised, and the stomach was removed.
In the same way as described above, gefarnate, a conventional anti-ulcer agent, was administered to the rats at a dosage of 100 mg/Kg.

A further data set deals with drug ulcers. Description: Drug Ulcer Test (indomethacin, aspirin, phenylbutazone). It counts as in vivo, rats. To be noted: for Inhibitory Ratio, Aspirin ulcer: aspirin 300 mg/Kg; for Inhibitory Ratio, Indomethacin ulcer: indomethacin 25 mg/Kg; for Inhibitory Ratio, Phenylbutazone ulcer: phenylbutazone 200 mg/Kg; for Effectiveness on Drug Ulcer (defensive factors): Table 1. Here is the method:
Female rats each weighing about 150 g (5 in each group) were starved for 20 hours, and then DV-1006 was administered to the rats. After one hour, 25 mg/Kg of indomethacin, 300 mg/Kg of aspirin and 200 mg/Kg of phenylbutazone, respectively, were administered orally to the rats and the rats were further starved for 5 hours. The stomach of each of the rats was removed, and the ulcer index was measured.
For comparison, the above procedure was repeated except that gefarnate and aluminum sucrose sulfate were used in their basic customary dosages.

For a further data set, the system named is acetic ulcers. Put plainly: 10% Acetic Acid Ulcer Test. It counts as in vivo, Wistar rats. To be noted: for Effectiveness on Acetic Ulcer (defensive factors): Table 1. As to the method:
Each of the drugs shown in FIG. 1 was orally administered to the rats once a day for 8 days starting on the date on which the acetic acid was injected. On the ninth day the rats were killed under ether anaesthesia. The stomach of each rat was removed, and opened along the greater curvature. The ulcer index was measured by means of slide calipers, and then the glandular stomach tissue was homogenized by adding a suitable amount of a physiological salt solution, and centrifuged for 20 minutes at a rate of 12,000 rpm.

Another data set has as its system clamping ulcers. Put plainly: Clamping Ulcer Test. It counts as in vivo, Wistar male rats. To be noted: for Effectiveness on Clamping Ulcer (defensive factors): Table 1. As to the method: (§2) Each of the drugs shown in FIG. 2 was administered orally once in a day for 14 days starting on the day on which the aluminum metal plate was removed. On the fifteenth day, the rats were killed under ether anaesthesia, and the ulcer index and the mucopolysaccharase activity in the stomach tissue were measured.

The test system of data set [2] is clamping-cortisone ulcers. Description: Clamping-Cortisone Ulcer Test. It counts as in vivo, rats. To be noted: for Effectiveness on Clamping-Cortisone Ulcer (defensive factors): Table 1. Here is the method:
as §2
Then, 5 mg/Kg of hydrocortisone acetate was intramuscularly injected into the rats once a day for 7 days starting on the day on which the aluminum metal plate was removed. Each of the agents shown in FIG. 3 was administered orally to the rats once a day for 11 days starting on the day on which the administration of hydrocortisone acetate was stopped.

The next data set deals with pepsin secretion. Description: Pepsin Secretion Inhibition Test (beef bouillon pot-au-feu soup stimulating test). It counts as in vivo, Heidenhain pouch dogs. To be noted: 150 mg/Kg orally, second stimulation 75 minutes later; FIG. 4. As to the method: After oral administration (first stimulation) of 70 ml of a mixture (100 ml) of 6 g of beef bouillon and 6 g of pot-au-feu soup, gastric juice was extracted every 15 minutes. When the secretion of gastric juice returned almost to the value before the stimulation, DV-1006 was orally administered at a dosage of 150 mg/Kg. The second stimulation was given 75 minutes later in the same way as in the first stimulation, and the amount of gastric juice secreted and the amount of pepsin secreted were measured [by the modified method of Anson-Maskey (see J. Gen. Physiol., 16, 59 (1932))] with the passage of time.

A further data set relates to gastric ulcers. Put plainly: Clinical test in gastric ulcer patients. It counts as in vivo. Here is the method:
Further, in order to confirm the anti-ulcer activities of the compounds of the general formula (I), clinical tests were also conducted using DV-1006 as a representative example of the compounds of the general formula (I). These clinical tests were performed on patients with gastric ulcers at National Zentsuji Hospital in Tokushima Prefecture, Japan.
30 gastric ulcer patients at the Internal Treatment Department of National Zentsuji Hospital in Tokushima Prefecture, Japan, who had been so diagnosed by X-ray and endoscopes, were treated for 8 weeks using an oral administration of DV-1006 at a dosage of 200 mg three times per day. At the end of the 8-week period, 21 patients were completely cured (70%), the condition of 7 patients had been alleviated (23%).

The test system of another data set is gastric juice. Put plainly: Mode of activity: action on gastric juice. Details: key: the symbol (+) shows that a particular agent has the indicated activity; the symbol (-) shows that the particular agent does not have the indicated activity; symbol (±) shows that the particular agent has a slight activity. The source says: As stated above, DV-1006 acts very strongly both on the aggressive factors and the defensive factors as compared with conventional anti-ulcer agents. […] In the treatment of peptic ulcers, the action of an agent on the gastric juice can be classified roughly into the following five categories: […]

In another data set the test system is carbachol stimulation. Description: Carbachol stimulation in the Gosh and Schild method. It counts as in vivo. The source says: (§3) Incidentally, it appears from the above table that anticholinergic agents produce […] those produced by DV-1006. […] From a pharmacological standpoint, DV-1006 has the activity selectively inhibiting the secretion of pepsin without affecting acidity and the activity of pepsin itself.

Data set [3] can be described thus: General anticholinergic activities.
From the text: as §3

Data set [4] concerns Shay ulcers. Description: Shay Ulcer Test by Intraperitoneal Administration. To be noted: Rattus norvegicus, ip, 18 h, read-out: Inhibitory Ratio; for inhibition in vivo at 350 mg/kg: 350 mg/Kg intraperitoneally in 0.5% CMC. It counts as in vivo, Donryu rats. As to the method:
as §1
Some typical compounds of formula (I) were tested on Shay ulcers in the same way as described in Example 2 except that each of the compounds was suspended in a 0.5% aqueous solution of carboxymethyl cellulose and administered intraperitoneally.

“Also recorded” adds a separate entry of the source. Counter-ions that a name gives are not always drawn.

For the compound `CC(C)=CCC/C(C)=C/CC/C(C)=C/CCC(=O)OC/C=C(\C)CCC=C(C)C` [gefarnate], in the data set on Shay ulcers [1] (100 mg/Kg orally), the “inhibitory ratio (Shay ulcer)” value is listed as 83%. Moreover, the “Effectiveness on Shay Ulcer (aggressive factors)” value (from here on “Effectiveness on Shay Ulcer”) in the data set with Shay ulcers [1] is “-”. Moreover, in the data set with drug ulcers (100 mg/Kg p.o.), the “Inhibitory Ratio, Aspirin ulcer” value was 42.8%; the “Inhibitory Ratio, Indomethacin ulcer” value is recorded as 29.0%; the “Inhibitory Ratio, Phenylbutazone ulcer” value is listed as 31.5%. Besides, the “Effectiveness on Drug Ulcer (defensive factors)” value (“Effectiveness on Drug Ulcer” below) in the data set on drug ulcers is given as “+”. In addition, the “Effectiveness on Acetic Ulcer (defensive factors)” value (from here on “Effectiveness on Acetic Ulcer”) in the data set on acetic ulcers is “-”. The “Effectiveness on Clamping Ulcer (defensive factors)” value (“Effectiveness on Clamping Ulcer” for short) in the data set on clamping ulcers is listed as “+”. In addition, the “Effectiveness on Clamping-Cortisone Ulcer (defensive factors)” value in [2] is given as “+”.
In the case of `NC[C@H]1CC[C@H](C(=O)Oc2ccc(CCC(=O)O)cc2)CC1` [DV-1006, 4'-(2-carboxyethyl)phenyl.trans-4-aminomethylcyclohexane carboxylate], the “inhibitory ratio (Shay ulcer)” value with Shay ulcers [1] (300 mg/Kg orally, method of Adami et al.) was 100%. Also, the “Effectiveness on Shay Ulcer” value in the data set on Shay ulcers [1] is reported as “+”. In the data set on drug ulcers (300 mg/Kg p.o.), the “Inhibitory Ratio, Aspirin ulcer” value amounted to 65.3%; the “Inhibitory Ratio, Indomethacin ulcer” value was determined as 30.2%; the “Inhibitory Ratio, Phenylbutazone ulcer” value came to 70.0%. Moreover, the “Effectiveness on Drug Ulcer” value with drug ulcers is reported as “+”. For the same compound, in the data set with acetic ulcers (FIG. 1), the “dose-response of action on acetic acid ulcers” value is recorded as “showed a dose-response”. Moreover, in the data set on acetic ulcers, the “Effectiveness on Acetic Ulcer” value is listed as “+”. The “activity of the mucopolysaccharase in the ulcer portion” value in the data set with acetic ulcers (glandular stomach tissue, ninth day, FIG. 1) is listed as “reduced”. For the same compound, the “action on ulcers caused by acetic acid (visual ulcer indices)” value in the data set with acetic ulcers (oral once a day for 8 days, ninth day, FIG. 1) is recorded as “marked inhibitory action; also recorded: especially strong action”. Besides, the “Effectiveness on Clamping Ulcer” value in the data set with clamping ulcers is “+”. In addition, the “action on β-glucuronidase in stomach tissue” value in the data set on clamping ulcers (oral once a day for 14 days, fifteenth day, FIG. 2) was “especially significant inhibitory action”. Moreover, in data set [2], the “Effectiveness on Clamping-Cortisone Ulcer (defensive factors)” value was “+”. Moreover, in data set [2] (model of chronic ulcers), the “action on clamping-cortisone ulcers” value is given as “especially strong action”. The “action on the activity of β-glucuronidase in stomach tissue” value in [2] (oral once a day for 11 days, twentieth day, FIG. 3) was “especially significant inhibitory action”. In the data set on pepsin secretion, the “amount of gastric juice secreted” value is listed as “reduced” and the pepsin secretion entry is reported as “markedly inhibited”. For the same compound, the side-effects in patients entry in the data set with gastric ulcers (oral 200 mg three times per day, 8 weeks) is “No side-effects were observed”. Also, the “curing effect on peptic ulcers” value with gastric ulcers (orally for several days at 300 to 1200 mg/day) is recorded as “very marked curing effect”. Further, the “Action on Gastric Juice: Amount of Gastric Juice” value with gastric juice (activity of controlling gastric juice) was “+”. For the same compound, in the data set on gastric juice (inhibitory action on acids), the “Action on Gastric Juice: Acids Activity” value is listed as “-”. For the same compound, the “Action on Gastric Juice: Pepsin Activity” value in the data set on gastric juice (inhibitory action on the activity of pepsin itself) is recorded as “-”. Moreover, the “Action on Gastric Juice: Acid Secretion” value in the data set with gastric juice (inhibitory action on the secretion of acids) is “±”. Further, in the data set with gastric juice (inhibitory action on the secretion of pepsin), the “Action on Gastric Juice: Pepsin Secretion” value is “+”. Moreover, in the data set on carbachol stimulation, the “inhibitory activity on carbachol stimulation” value was “does not exhibit any inhibitory activity”. Besides, in [3], the general anticholinergic activities entry is reported as “does not show general anticholinergic activities”.
Turning to `NC[C@H]1CC[C@H](C(=O)Oc2ccc(Cl)cc2)CC1`, the inhibition in vivo at 175 mg/kg in the data set on Shay ulcers [4] (175 mg/Kg intraperitoneally in 0.5% CMC) stood at 62%.
For the compound `NC[C@H]1CC[C@H](C(=O)Oc2ccc3ccccc3c2)CC1`, the inhibition in vivo at 350 mg/kg with Shay ulcers [4] stood at 84%.
Still for that read-out and setting: for `NC[C@H]1CC[C@H](C(=O)Oc2ccc(C=CC(=O)O)cc2)CC1` the value was 76%; for `NC[C@H]1CC[C@H](C(=O)Oc2ccc(-c3ccccc3)cc2)CC1`, 58%.
Take `NC[C@H]1CC[C@H](C(=O)Oc2ccc(C(=O)O)cc2)CC1`: in the data set with Shay ulcers [4], the inhibition in vivo at 350 mg/kg stood at 71%.
Take `NC[C@H]1CC[C@H](C(=O)Oc2ccc(CCC(=O)O)cc2)CC1` [drawing 3]: the inhibition in vivo at 350 mg/kg in the data set on Shay ulcers [4] was found to be 70%.
As for `COc1cc(C=O)ccc1OC(=O)[C@H]1CC[C@H](CN)CC1`, the inhibition in vivo at 350 mg/kg with Shay ulcers [4] amounted to 84%.
In the case of `NC[C@H]1CC[C@H](C(=O)Oc2ccccc2)CC1`, the inhibition in vivo at 350 mg/kg with Shay ulcers [4] is 84%.
The same measure, in the same setting: for `NC[C@H]1CC[C@H](C(=O)Oc2ccc(CC(N)C(=O)O)cc2)CC1` (stereo partly shown) the value was 71%.
For `CN1[C@@H]2CC[C@H]1C[C@@H](OC(=O)C(CO)c1ccccc1)C2` (stereo partly shown) [atropine sulfate], the “Effectiveness on Shay Ulcer” value with Shay ulcers [1] is given as “+”. Moreover, the “Effectiveness on Drug Ulcer” value in the data set on drug ulcers is listed as “-”. Moreover, the “Effectiveness on Acetic Ulcer” value with acetic ulcers is given as “+”.
Turning to aluminum sucrose sulfate, the “Effectiveness on Shay Ulcer” value with Shay ulcers [1] was “+”. In addition, in the data set with drug ulcers (1000 mg/Kg p.o.), the “Inhibitory Ratio, Aspirin ulcer” value was determined as 38.6%; the “Inhibitory Ratio, Indomethacin ulcer” value stood at 40.0%; the “Inhibitory Ratio, Phenylbutazone ulcer” value was 38.0%. Besides, the “Effectiveness on Drug Ulcer” value in the data set on drug ulcers is on record as “+”. In addition, the “Effectiveness on Acetic Ulcer” value in the data set with acetic ulcers was “+”. Besides, the “Effectiveness on Clamping Ulcer” value in the data set on clamping ulcers is on record as “+”. In [2], the “Effectiveness on Clamping-Cortisone Ulcer (defensive factors)” value is “-”.
